Reference: patent US10934297B2, “5-heteroaryl substituted indazole-3-carboxamides and preparation and use thereof” (Samumed, LLC, priority 2018, dated 2021)
Where two headings read alike, the source gives them in different places.

Key:
[1] = system: primary human fibroblasts derived from IPF patients (LL29 cells); assay: Inhibition of the fibrotic process: αSMA staining in TGF-β1 treated LL29 fibroblasts; assay type: cell-based; details: for EC50: LL29 cells, TGF-β1 20 ng/mL, 4 days, % αSMA positive cells
Outline: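 LL29 fibroblasts from IPF patients, in F12 medium with 1% FBS, treated with TGF-β1 plus compound; TGF-β1 with DMSO as positive control, DMSO alone as negative control. After 4 days' incubation, SYTOX green nucleic acid stain added at 1 μM final, 30 min at room temperature.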

GSK3β kinase = GSK3β kinase (Homo sapiens (Human), UniProt P49841); assay: GSK3β kinase assay (Ser/Thr 09 peptide Z-lyte FRET); assay type: biochemical; details: read-out: EC50 (method: IC50)
Outline: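 Non-radioactive Z-lyte FRET read-out, kinase activity expressed as coumarin/fluorescein emission ratio. Compounds incubated with the reaction mixture one hour at room temperature in duplicate, then development buffer added for another hour. IC50 from non-linear regression of dose-response curves.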

[2] = system: Wnt activity (Sp5-Luc reporter in SW480 cells); assay: Screening assay for Wnt activity: Sp5-Luc reporter gene assay in SW480 colon carcinoma cells; assay type: cell-based, human; details: 36 to 48 hours
Outline: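 EC50 values come from a variable-slope four-parameter fit of luminescence normalized to DMSO-only wells. The read-out follows 36–48 h incubation at 37 °C, 5% CO2, in DMEM containing 1% fetal bovine serum. Cells are hygromycin-selected SW480 stably expressing firefly luciferase under a Wnt-responsive Sp5 promoter (eight TCF/LEF sites).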

DYRK1A kinase = DYRK1A kinase (Homo sapiens (Human), UniProt Q13627); assay: DYRK1A kinase assay (Ser/Thr 18 peptide Z-lyte FRET); assay type: biochemical; details: read-out: EC50 (method: IC50)
Outline: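 Kinase reactions with compound ran 1 h at room temperature in duplicate, and development reagent was then added for another hour.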

IL-6 = IL-6 inhibition in LPS-stimulated human peripheral blood mononuclear cells (HTRF); assay type: cell-based; details: for EC50: huPBMCs, LPS 50 ng/mL, 22 hours, IL-6 HTRF; for inhibition at 10 µM: read-out: percent inhibition at 10 μM
Outline: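 HTRF 665/620 nm ratio, read after 3 h antibody incubation at room temperature, quantified IL-6 released by fresh human PBMCs (1×10e6 cells/mL, 1% FBS-RPMI). The cells got compound, then 50 ng/mL LPS at 2 h, followed by a further 22 h at 37° C. EC50 came from DMSO-normalized readings run in duplicate.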

[3] = system: SW480 colon carcinoma cells; assay: Cell viability assay (CellTiter-Glo) in SW480 colon carcinoma cells; assay type: cell-based, human; details: four days
Outline: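 Viability was taken from CellTiter-Glo ATP luminescence, read about 12 min after reagent addition, relative to DMSO controls. The cells were Sp5-Luc reporter SW480 colon carcinoma cells, 2,000/well in 1% FBS DMEM, exposed to compound for four days at 37 °C.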

[4] = system: primary human mesenchymal stem cells (hMSCs); assay: Tenocyte differentiation assay (SCXA-positive cells) in hMSCs; assay type: cell-based; details: for EC50: hMSCs, 4 days, SCXA positive cells; for percent in parentheses under EC50 >100: given for EC50 >100 μM, meaning not defined in this example
Text: Representative compounds were screened using primary human mesenchymal stem cells (hMSCs) to determine their ability to induce tenocyte differentiation (process by which tendon is developed).
Primary human mesenchymal stem cells (hMSCs) were purchased from Lonza (Walkersville, Md.) and expanded in Mesenchymal Stem Cell Growth Media (Lonza). Cells between passage 3 and 6 were used for the experiments.
Cells were fixed using 4% formaldehyde (Electron Microscopy Sciences), and stained with anti-Sclerasis (anti-SCXA) antibodies (Abgent, San Diego, Calif.) [Webb S., et.al., Retinoic acid receptor signaling preserves tendon stem cell characteristics and prevents spontaneous differentiation in vitro, Stem Cell Research & Therapy 2016, 7:45] overnight at 4° C. […] Number of cells positive for SCXA in each well was quantified using the CellInsight CX5. Data was normalized to the average of 12 DMSO treated wells on the same plate using Dotmatics Studies module. The normalized averages (fold change over DMSO) of 3 replicate wells for each compound concentration were calculated. Due to solubility limitations of some of the compounds, values for higher doses were manually corrected and curve fitting and EC50 determinations were performed using Dotmatics Studies.

[5] = Homo sapiens, Mesenchymal stem cells, 96 h

Chain of GSK3β kinase (P49841 whole entry): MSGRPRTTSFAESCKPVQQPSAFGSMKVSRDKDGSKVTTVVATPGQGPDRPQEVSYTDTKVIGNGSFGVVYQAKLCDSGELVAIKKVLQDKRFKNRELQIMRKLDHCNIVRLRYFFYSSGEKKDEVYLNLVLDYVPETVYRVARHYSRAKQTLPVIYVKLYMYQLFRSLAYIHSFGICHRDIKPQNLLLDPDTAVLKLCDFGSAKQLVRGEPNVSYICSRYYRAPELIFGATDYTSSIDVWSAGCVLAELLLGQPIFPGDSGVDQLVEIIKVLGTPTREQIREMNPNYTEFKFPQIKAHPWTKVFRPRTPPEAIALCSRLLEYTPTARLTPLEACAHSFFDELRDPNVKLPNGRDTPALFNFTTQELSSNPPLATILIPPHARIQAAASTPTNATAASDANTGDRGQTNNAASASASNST

| Compound | EC50 ([1]; Homo sapiens, Fibroblast, 96 h) [nM] | IC50 (GSK3β kinase) [nM] | EC50 ([2]; Homo sapiens) [nM] | IC50 (DYRK1A kinase) [nM] | EC50 (IL-6; Homo sapiens, PBMC) [nM] | EC50 ([3]; Homo sapiens, 96 h) [nM] | EC50 [4, 5] [nM] | percent in parentheses under EC50 >100 [4] | EC50 [1] [nM] | IC50 (GSK3β kinase; recombinant GSK3β, 46 μM ATP, one hour, column head prints EC50) [nM] | EC50 [2] [nM] | IC50 (DYRK1A kinase; recombinant DYRK1A, 30 μM ATP, one hour, column head prints EC50) [nM] | EC50 (IL-6) [nM] | EC50 [3] [nM] | EC50 [4] [nM] | inhibition at 10 µM ([1]; Homo sapiens, Fibroblast, read-out: percent inhibition at 10 μM) [%] | inhibition at 10 µM (IL-6; Homo sapiens, PBMC) [%] |
| --- | --- | --- | --- | --- | --- | --- | --- | --- | --- | --- | --- | --- | --- | --- | --- | --- | --- |
| Cn1cc(-c2cc3c(C(=O)Nc4cccc(OC5CCNCC5)c4)n[nH]c3cc2F)cn1 [Compound 150, 6-Fluoro-5-(1-methyl-1H-pyrazol-4-yl)-N-(3-(piperidin-4-yloxy)phenyl)-1H-indazole-3-carboxamide] | 317 | 52 | 248 | 4 | 3570 | 214 | > 100000 | (17.4%) |  |  |  |  |  |  |  |  |  |
| Cc1coc(NC(=O)c2n[nH]c3cc(F)c(-c4cnn(C5CCN(C)CC5)c4)cc23)n1 [Compound 138, 6-Fluoro-N-(4-methyloxazol-2-yl)-5-(1-(1-methylpiperidin-4-yl)-1H-pyrazol-4-yl)-1H-indazole-3-carboxamide] | 435 | 193 | 125 | 6 | 2730 | 105 | 4920 |  |  |  |  |  |  |  |  |  |  |
| CC(C)CN1CC[C@H](NC(=O)c2n[nH]c3ccc(-c4cn[nH]c4)cc23)[C@@H](F)C1 [Compound 145, N-((3 S,4S)-3-Fluoro-1-isobutylpiperidin-4-yl)-5-(1H-pyrazol-4-yl)-1H-indazole-3-carboxamide] | 100 | 41 | 345 | 37 | 1140 | 372 | 863 |  |  |  |  |  |  |  |  |  |  |
| CC(C)n1cc(-c2cc3c(C(=O)Nc4ccc(OC5CCN(C)CC5)cc4)n[nH]c3cc2F)cn1 [Compound 158, 6-Fluoro-5-(1-isopropyl-1H-pyrazol-4-yl)-N-(4-((1-methylpiperidin-4-yl)oxy)phenyl)-1H-indazole-3-carboxamide] | 1150 | 349 | 1160 | 23 | 5990 | 784 | > 100000 | (17.4%) |  |  |  |  |  |  |  |  |  |
| 5-(1,2-Dimethyl-1H-imidazol-5-yl)-N-(2-methylthiazol-5-yl)-1H-indazole-3-carboxamide [Compound 139] |  |  |  |  |  |  |  | (21.2%) | 1240 | 20 | 335 | 4 | 3110 | 473 | > 100000 |  |  |
| CN1CCC(n2cc(-c3ccc4[nH]nc(C(=O)Nc5cnn(C)c5)c4c3)cn2)CC1 [Compound 142, N-(1-Methyl-1H-pyrazol-4-yl)-5-(1-(1-methylpiperidin-4-yl)-1H-pyrazol-4-yl)-1H-indazole-3-carboxamide] | 115 | 208 | 130 | 8 | 1100 | 116 | > 100000 | (38.2%) |  |  |  |  |  |  |  |  |  |
| Cc1ncc(-c2ccc3[nH]nc(C(=O)N[C@@H](C(C)C)C(F)(F)F)c3c2)n1C [Compound 133, (S)-5-(1,2-Dimethyl-1H-imidazol-5-yl)-N-(1,1,1-trifluoro-3-methylbutan-2-yl)-1H-indazole-3-carboxamide] | > 10000 | 1350 | > 10000 | 930 | > 10000 | > 10000 | > 100000 | (15.8%) |  |  |  |  |  |  |  | 35.8 | 20.2 |
| CN1[C@@H]2CC[C@H]1CC(NC(=O)c1n[nH]c3ccc(-c4cnn(C)c4)cc13)C2 (stereo partly drawn) [Compound 146, 5-(1-Methyl-1H-pyrazol-4-yl)-N-((1R,5S)-8-methyl-8-azabicyclo [3.2.1]octan-3-yl)-1H-indazole-3-carboxamide] | > 10000 |  | 1580 |  | > 10000 | > 10000 | > 100000 | (35.9%) |  |  |  |  |  |  |  |  | 4.7 |
